Measured values: ChEMBL document CHEMBL4725367, “Novel anticancer Hsp90 inhibitor disubstituted pyrazolyl 2-aminopyrimidine compound 7t induces cell cycle arrest and apoptosis via mitochondrial pathway in MCF-7 cells” (Bioorg Med Chem Lett, 2020)
Activity calls are given as the source filed them. The rule behind the calls is not given here.

Assays:
[1] = biological target: T1, Heat shock protein HSP90 (Homo sapiens) (UniProt P07900+P08238); experiment: Inhibition of HSP90 in human MCF7 cells assessed as cell cycle arrest by measuring accumulation at Sub-G1 phase at 1 uM measured after 24 hrs by RNaseA/propidium iodide staining based flow cytometric analysis (reference value: 3.75 %); set-up: scale not given: the % may be the effect or the level left
[2] = biological target: T1, Heat shock protein HSP90 (Homo sapiens); experiment: Inhibition of HSP90 in human MCF7 cells assessed as cell cycle arrest by measuring accumulation at G0/G1 phase at 1 uM measured after 24 hrs by RNaseA/propidium iodide staining based flow cytometric analysis (reference value: 39.10 %); set-up: scale not given: the % may be the effect or the level left
[3] = biological target: T1, Heat shock protein HSP90 (Homo sapiens); experiment: Inhibition of HSP90 in human MCF7 cells assessed as cell cycle arrest by measuring accumulation at S phase at 1 uM measured after 24 hrs by RNaseA/propidium iodide staining based flow cytometric analysis (reference value: 7.08 %); set-up: scale not given: the % may be the effect or the level left
[4] = biological target: T1, Heat shock protein HSP90 (Homo sapiens); experiment: Inhibition of HSP90 in human MCF7 cells assessed as cell cycle arrest by measuring accumulation at G2/M phase at 1 uM measured after 24 hrs by RNaseA/propidium iodide staining based flow cytometric analysis (reference value: 25.08 %); set-up: scale not given: the % may be the effect or the level left
[5] = biological target: T1, Heat shock protein HSP90 (Homo sapiens); experiment: Inhibition of HSP90 in human MCF7 cells assessed as induction of apoptosis by measuring live cells at 1 uM measured after 24 hrs by annexinV-FITC/propidium iodide staining based flow cytometry (reference value: 90.77 %); format: cell-based; set-up: scale not given: the % may be the effect or the level left
[6] = biological target: T1, Heat shock protein HSP90 (Homo sapiens); experiment: Inhibition of HSP90 in human MCF7 cells assessed as induction of apoptosis by measuring early apototic cells at 1 uM measured after 24 hrs by annexinV-FITC/propidium iodide staining based flow cytometry (reference value: 1.31 %); format: cell-based; set-up: scale not given: the % may be the effect or the level left
[7] = biological target: T1, Heat shock protein HSP90 (Homo sapiens); experiment: Inhibition of HSP90 in human MCF7 cells assessed as induction of apoptosis by measuring late apototic cells at 1 uM measured after 24 hrs by annexinV-FITC/propidium iodide staining based flow cytometry (reference value: 7.91 %); format: cell-based; set-up: scale not given: the % may be the effect or the level left
[8] = biological target: T1, Heat shock protein HSP90 (Homo sapiens); experiment: Inhibition of HSP90 in human MCF7 cells assessed as induction of apoptosis by measuring necrotic cells at 1 uM measured after 24 hrs by annexinV-FITC/propidium iodide staining based flow cytometry (reference value: 0.01 %); format: cell-based; set-up: scale not given: the % may be the effect or the level left
[9] = biological target: T1, Heat shock protein HSP90 (Homo sapiens); experiment: Inhibition of HSP90 in human MCF7 cells assessed as induction of apoptosis by measuring total apoptotic and dead cell population at 1 uM measured after 24 hrs by annexinV-FITC/propidium iodide staining based flow cytometry (reference value: 9.23 %); set-up: scale not given: the % may be the effect or the level left
[10] = biological target: T1, Heat shock protein HSP90 (Homo sapiens); experiment: Inhibition of HSP90 in human MCF7 cells assessed as induction of morphological changes by measuring membrane blebbing at 1 uM by acridine orange/ethidium bromide staining based fluorescence microscopy analysis; format: cell-based
[11] = biological target: T1, Heat shock protein HSP90 (Homo sapiens); experiment: Inhibition of HSP90 in human MCF7 cells assessed as induction of morphological changes by measuring nuclei condensation at 1 uM by acridine orange/ethidium bromide staining based fluorescence microscopy analysis; format: cell-based
[12] = biological target: T1, Heat shock protein HSP90 (Homo sapiens); experiment: Inhibition of HSP90 in human MCF7 cells assessed as induction of morphological changes by measuring apoptotic body formation at 1 uM by acridine orange/ethidium bromide staining based fluorescence microscopy analysis; format: cell-based
[13] = biological target: T1, Heat shock protein HSP90 (Homo sapiens); experiment: Inhibition of HSP90 in human MCF7 cells assessed as induction of nuclear morphological changes by measuring horse shoe shaped nuclei formation at 1 uM by DAPI staining based fluorescence microscopy analysis; format: cell-based
[14] = biological target: T1, Heat shock protein HSP90 (Homo sapiens); experiment: Inhibition of HSP90 in human MCF7 cells assessed as induction of nuclear morphological changes by measuring nuclear fragmentation at 1 uM by DAPI staining based fluorescence microscopy analysis; format: cell-based
[15] = biological target: T1, Heat shock protein HSP90 (Homo sapiens); experiment: Inhibition of HSP90 in human MCF7 cells assessed as induction of mitochondrial membrane potential loss by measuring cell population with intact mitochondrial membrane potential at 1 uM after 24 hrs by JC1 staining-based flow cytometry analysis (reference value: 92.39 %); set-up: scale not given: the % may be the effect or the level left
[16] = biological target: T1, Heat shock protein HSP90 (Homo sapiens); experiment: Inhibition of HSP90 in human MCF7 cells assessed as induction of mitochondrial membrane potential loss by measuring cell population with mitochondrial membrane potential collapse at 1 uM after 24 hrs by JC1 staining-based flow cytometry analysis (reference value: 6.53 %); set-up: scale not given: the % may be the effect or the level left
[17] = biological target: T1, Heat shock protein HSP90 (Homo sapiens); experiment: Inhibition of HSP90 in human MCF7 cells assessed as increase in ROS generation by measuring fluorescence intensity at 10 uM after 24 hrs by DCFDA staining based flow cytometry; format: cell-based

O=c1[nH]cc(F)c(=O)[nH]1 gave an Activity [1] of 12.2%, an Activity [2] of 27.4% and an Activity [3] of 7.99%. It also gave an Activity [4] of 26.4%, an Activity [5] of 70.5% and an Activity [6] of 1.94%. For the same molecule, the Activity [7] was 27.2%, the Activity [8] was 0.36% and the Activity [9] was 29.5%. For the same molecule, the inhibition [10] was “Active”, the inhibition [11] was “Active” and the inhibition [12] was “Active”. The inhibition [13] was “Active”, the Activity [14] was “Active” and the Activity [15] was 70.3%. The Activity [16] was 26.8% and the inhibition [17] was “Active”.
